Data published in US11612599B2, “Glycosidase inhibitors” (Asceneuron SA, priority 2016, dated 2023).

Biological target: Human O-GlcNAcase (His-Tagged hOGA) (Homo sapiens (Human), UniProt O60502)
Experiment: Human O-GlcNAcase enzyme inhibition assay
Format: biochemical
Settings: OGA enzyme inhibition assay; activity range classes defined in μM
Description: Then, 20 nM of His-Tagged hOGA and 10 μM of FL-GlcNAc (Fluorescein mono-beta-D-(2-deoxy-2-N-acetyl) glucopyranoside; Marker Gene Technologies Inc, M1485) were added to the 384-well plate for a final volume of 20 μl.

Sequence of Human O-GlcNAcase (His-Tagged hOGA) (O60502 whole entry): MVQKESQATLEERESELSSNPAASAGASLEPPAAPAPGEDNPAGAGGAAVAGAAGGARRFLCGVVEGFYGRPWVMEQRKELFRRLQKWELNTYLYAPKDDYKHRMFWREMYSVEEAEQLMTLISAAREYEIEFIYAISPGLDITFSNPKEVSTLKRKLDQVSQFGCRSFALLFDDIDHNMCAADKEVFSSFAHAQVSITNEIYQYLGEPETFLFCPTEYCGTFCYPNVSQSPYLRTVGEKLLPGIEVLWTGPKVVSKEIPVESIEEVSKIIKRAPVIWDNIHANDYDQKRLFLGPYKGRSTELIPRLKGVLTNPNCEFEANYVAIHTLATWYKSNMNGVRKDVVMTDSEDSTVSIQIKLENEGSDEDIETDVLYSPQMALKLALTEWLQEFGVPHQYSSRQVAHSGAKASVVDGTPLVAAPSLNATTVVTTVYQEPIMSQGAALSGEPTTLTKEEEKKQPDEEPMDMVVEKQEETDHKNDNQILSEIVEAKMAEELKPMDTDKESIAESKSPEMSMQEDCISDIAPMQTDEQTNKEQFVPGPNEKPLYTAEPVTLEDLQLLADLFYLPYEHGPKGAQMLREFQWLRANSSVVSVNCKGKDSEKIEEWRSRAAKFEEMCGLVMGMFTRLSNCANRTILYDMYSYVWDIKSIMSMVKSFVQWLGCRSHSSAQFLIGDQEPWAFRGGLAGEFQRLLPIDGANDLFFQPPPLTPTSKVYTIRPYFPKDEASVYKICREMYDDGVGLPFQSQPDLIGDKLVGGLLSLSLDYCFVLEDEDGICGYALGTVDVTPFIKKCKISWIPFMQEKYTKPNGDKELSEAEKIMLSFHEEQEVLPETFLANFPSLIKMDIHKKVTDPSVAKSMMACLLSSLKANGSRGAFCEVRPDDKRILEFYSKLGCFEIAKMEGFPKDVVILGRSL

`Cc1ncc2ccc(N3CCN(C(C)c4ccc5c(c4)OCC5)CC3)cn12` (racemic) [Example 1, 6-(4-(1-(2,3-dihydrobenzofuran-6-yl)ethyl)piperazin-1-yl)-3-methylimidazo[1,5-a]pyridine] and `CC(c1ccc2c(c1)OCC2)N1CCN(c2ccc3c(c2)C(=O)NC3)CC1` (racemic) [Example 2, 6-(4-(1-(2,3-dihydrobenzofuran-6-yl)ethyl)piperazin-1-yl)isoindolin-1-one] cannot be ordered by IC50: < 0.05 µM for the first, < 0.05 µM for the second.

`CC(c1ccc2c(c1)OCC2)N1CCN(c2cc3c(cn2)NC(=O)CO3)CC1` (racemic) [Example 3, 7-(4-(1-(2,3-dihydrobenzofuran-6-yl)ethyl)piperazin-1-yl)-2H-pyrido[4,3-b][1,4]oxazin-3(4H)-one] and `CC(c1ccc2c(c1)OCC2)N1CCN(c2nc3c(s2)C(=O)NCC3)CC1` (racemic) [Example 12, 2-(4-(1-(2,3-dihydrobenzofuran-6-yl)ethyl)piperazin-1-yl)-6,7-dihydrothiazolo[5,4-c]pyridin-4(5H)-one] cannot be ordered by IC50: < 0.05 µM for the first, < 0.05 µM for the second.

First: CC(c1ccc2nccnc2c1)N1CCN(c2ccc3c(c2)C(=O)NC3)CC1 (racemic) [Example 4, 6-(4-(1-(quinoxalin-6-yl)ethyl)piperazin-1-yl)isoindolin-1-one]
Second: C[C@H](c1ccc2c(c1)OCC2)N1CCN(c2nc3c(s2)CNCC3)CC1 (single isomer, unassigned) [Example 18]
The IC50 of the first is lower: 0.05 to 0.2 µM for the first, 1 to 10 µM for the second.
